Assay results taken from patent publication US7138361B2, “Herbicidal heterocycles” (E. I. du Pont de Nemours and Company, priority 2000, dated 2006).

Assays:
Assay type in all cases: in vivo
[1] = test system: velvetleaf (Abutilon theophrasti); experiment: Test B postemergence
Method in brief: (§1)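 Seeds were planted and sprayed preemergence with test chemical in a non-phytotoxic solvent mixture containing surfactant; postemergence plants (2 to 18 cm, 1- to 4-leaf stage) received the same formulation. Greenhouse hold 13 to 15 days, then visual rating versus untreated controls on a 0–100 scale (0 no effect, 100 complete control).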

[2] = test system: Surinam grass (Brachiaria decumbens); experiment: Test B postemergence
Method in brief: as §1

[3] = test system: cocklebur (Xanthium strumarium); experiment: Test B postemergence
Method in brief: as §1

[4] = test system: blackgrass (Alopecurus myosuroides); experiment: Test B postemergence
Method in brief: as §1

[5] = test system: lambsquarters (Chenopodium album); experiment: Test B postemergence
Method in brief: as §1

[6] = test system: barnyardgrass (Echinochloa crus-galli); experiment: Test B postemergence
Method in brief: as §1

[7] = test system: wild oat (Avena fatua); experiment: Test B postemergence
Method in brief: as §1

[8] = test system: crabgrass (Digitaria sanguinalis); experiment: Test B postemergence
Method in brief: as §1

[9] = test system: pigweed (Amaranthus retroflexus); experiment: Test B postemergence
Method in brief: as §1

[10] = test system: morning glory (Ipomoea hederacea); experiment: Test B postemergence
Method in brief: as §1

[11] = test system: corn (Zea mays); experiment: Test B postemergence
Method in brief: as §1

[12] = test system: wheat (Triticum aestivum); experiment: Test B postemergence
Method in brief: as §1

[13] = test system: giant foxtail (Setaria faberii); experiment: Test B postemergence
Method in brief: as §1

[14] = test system: barnyardgrass (Echinochloa crus-galli); experiment: Test C flooded paddy test
Method in brief: (§2)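 Each species was cultivated to 2 leaves in flooded paddy pots, then treated. After a greenhouse period of 12–14 days, the plants were scored visually relative to controls from 0 (no effect) to 100 (complete control).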

[15] = test system: smallflower flatsedge (Cyperus difformis); experiment: Test C flooded paddy test; details: for Flatsedge plant response rating: Flooded Paddy, scale 0 to 100, 0 no effect, 100 complete control; for Plant response rating, Flatsedge: flooded paddy test, scale 0 to 100 (0 no effect, 100 complete control)
Method in brief: as §2

[16] = test system: rice (Oryza saliva); experiment: Test C flooded paddy test
Method in brief: as §2

[17] = test system: duck salad (Heteranthera limosa); experiment: Test C flooded paddy test
Method in brief: as §2

[18] = test system: velvetleaf (Abutilon theophrasti); experiment: Test B preemergence
Method in brief: as §1

[19] = test system: Surinam grass (Brachiaria decumbens); experiment: Test B preemergence
Method in brief: as §1

[20] = test system: cocklebur (Xanthium strumarium); experiment: Test B preemergence; details: Preemergence, Rate 500 g/ha; scale 0 to 100, 0 no effect, 100 complete control
Method in brief: as §1

[21] = test system: lambsquarters (Chenopodium album); experiment: Test B preemergence
Method in brief: as §1

[22] = test system: barnyardgrass (Echinochloa crus-galli); experiment: Test B preemergence
Method in brief: as §1

[23] = test system: crabgrass (Digitaria sanguinalis); experiment: Test B preemergence
Method in brief: as §1

[24] = test system: pigweed (Amaranthus retroflexus); experiment: Test B preemergence
Method in brief: as §1

[25] = test system: morning glory (Ipomoea hederacea); experiment: Test B preemergence
Method in brief: as §1

[26] = test system: corn (Zea mays); experiment: Test B preemergence
Method in brief: as §1

[27] = test system: giant foxtail (Setaria faberii); experiment: Test B preemergence
Method in brief: as §1

[28] = test system: rice (Oryza saliva); experiment: Test B preemergence
Method in brief: as §1

[29] = test system: barnyardgrass (Echinochloa crus-galli); experiment: Test B flooded paddy test; details: Rate 1000 g/ha, scale of 0 to 100 where 0 is no effect and 100 is complete control, visually evaluated after 13 to 15 days
Method in brief: (§3)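 Visual rating on a 0–100 scale, where 100 is complete control, made after 13 to 15 days in a greenhouse by comparison with untreated controls. Species treated in the flooded paddy were at the 2-leaf stage: barnyardgrass, duck salad, smallflower flatsedge and rice.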

[30] = test system: smallflower flatsedge (Cyperus difformis); experiment: Test B flooded paddy test; details: Rate 1000 g/ha, scale of 0 to 100 where 0 is no effect and 100 is complete control, visually evaluated after 13 to 15 days
Method in brief: as §3

[31] = test system: rice (Oryza saliva); experiment: Test B flooded paddy test; details: Rate 1000 g/ha, scale of 0 to 100 where 0 is no effect and 100 is complete control, visually evaluated after 13 to 15 days
Method in brief: as §3

[32] = test system: duck salad (Heteranthera limosa); experiment: Test B flooded paddy test; details: Rate 1000 g/ha, scale of 0 to 100 where 0 is no effect and 100 is complete control, visually evaluated after 13 to 15 days
Method in brief: as §3

[33] = Rate 125 g/ha, scale 0 (no effect) to 100 (complete control), 13 to 15 days
[34] = Rate 500 g/ha, scale 0 to 100, 0 is no effect, 100 is complete control, 13 to 15 days
[35] = Flooded Paddy, Rate 500 g/ha, scale 0 to 100
[36] = Flooded Paddy, Rate 250 g/ha, scale 0 to 100, 0 no effect, 100 complete control
[37] = flooded paddy test, Rate 62 g/ha, scale 0 to 100 (0 no effect, 100 complete control)
[38] = flooded paddy test, Rate 125 g/ha, scale 0 to 100 (0 no effect, 100 complete control)
[39] = Preemergence, Rate 500 g/ha, scale 0 to 100, 0 no effect, 100 complete control
[40] = preemergence, Rate 125 g/ha, scale 0 to 100, 0 no effect, 100 complete control
[41] = Rate 125 g/ha, scale 0 to 100, 0 no effect, 100 complete control
[42] = Rate 500 g/ha, scale 0 (no effect) to 100 (complete control), 13 to 15 days
[43] = preemergence, Rate 125 g/ha, scale of 0 to 100 where 0 is no effect and 100 is complete control, 13 to 15 days

Cc1cn(C2CCN(c3cccc(C(F)(F)F)c3)C2=O)nc1C(C)C (stereo not shown) [Compound 17]
Plant response rating, Velvetleaf [1, 33]: 0 | Plant response rating, Velvetleaf [1, 34]: 0 | Plant response rating, Surinam grass [2, 33]: 0 | Plant response rating, Surinam grass [2, 34]: 0 | Plant response rating, Cocklebur [3, 33]: 0 | Plant response rating, Cocklebur [3, 34]: 0 | Plant response rating, Blackgrass [4, 33]: 0 | Plant response rating, Blackgrass [4, 34]: 0 | Plant response rating, Lambsquarters [5, 33]: 80 | Plant response rating, Lambsquarters [5, 34]: 80 | Plant response rating, Barnyardgrass [6, 33]: 0 | Plant response rating, Barnyardgrass [6, 34]: 0 | Plant response rating, Wild Oat [7, 33]: 0 | Plant response rating, Wild Oat [7, 34]: 0 | Plant response rating, Crabgrass [8, 33]: 0 | Plant response rating, Crabgrass [8, 34]: 0 | Plant response rating, Pigweed [9, 33]: 0 | Plant response rating, Pigweed [9, 34]: 0 | Plant response rating, Morningglory [10, 33]: 0 | Plant response rating, Morningglory [10, 34]: 0 | Plant response rating, Corn [11, 33]: 0 | Plant response rating, Corn [11, 34]: 0 | Plant response rating, Wheat [12, 33]: 0 | Plant response rating, Wheat [12, 34]: 0 | Plant response rating, Foxtail, Giant [13, 33]: 0 | Plant response rating, Foxtail, Giant [13, 34]: 0 | Plant response rating, Barnyardgrass [14, 35]: 70 | Barnyardgrass plant response rating [14, 36]: 0 | Plant response rating, Barnyardgrass [14, 37]: 0 | Plant response rating, Barnyardgrass [14, 38]: 0 | Flatsedge plant response rating ([15]; Rate 250 g/ha): 80 | Flatsedge plant response rating ([15]; Rate 500 g/ha): 80 | Plant response rating, Flatsedge ([15]; Rate 62 g/ha): 20 | Plant response rating, Flatsedge ([15]; Rate 125 g/ha): 70 | Plant response rating, Rice [16, 35]: 0 | Rice plant response rating [16, 36]: 0 | Plant response rating, Rice [16, 37]: 0 | Plant response rating, Rice [16, 38]: 0 | Plant response rating, Ducksalad [17, 35]: 80 | Ducksalad plant response rating [17, 36]: 80 | Plant response rating, Ducksalad [17, 37]: 30 | Plant response rating, Ducksalad [17, 38]: 70 | Plant response rating, Velvetleaf [18, 39]: 0 | Plant response rating, Surinam grass [19, 39]: 0 | Plant response rating, Surinam grass [19, 40]: 0 | Plant response rating, Cocklebur [20]: 0 | Plant response rating, Lambsquarters [21, 39]: 0 | Plant response rating, Barnyardgrass [22, 39]: 0 | Plant response rating, Barnyardgrass [22, 40]: 0 | Plant response rating, Crabgrass [23, 39]: 0 | Plant response rating, Crabgrass [23, 40]: 0 | Plant response rating, Pigweed [24, 39]: 0 | Plant response rating, Pigweed [24, 40]: 0 | Plant response rating, Morningglory [25, 39]: 0 | Plant response rating, Corn [26, 39]: 0 | Plant response rating, Corn [26, 40]: 0 | Plant response rating, Foxtail, Giant [27, 39]: 0 | Plant response rating, Foxtail, Giant [27, 40]: 0 | Plant response rating, Rice [28, 39]: 0 | Plant response rating, Rice [28, 40]: 0 | Plant response rating, Barnyardgrass [29]: 80 | Plant response rating, Flatsedge [30]: 90 | Plant response rating, Rice [31]: 40 | Plant response rating, Ducksalad [32]: 60

Cc1ccnc(N2CCC(n3ccc(C(C)(C)C)n3)C2=O)c1 (stereo not shown) [Compound 139]
Plant response rating, Velvetleaf [1, 41]: 0 | Plant response rating, Velvetleaf [1, 42]: 0 | Plant response rating, Surinam grass [2, 41]: 0 | Plant response rating, Surinam grass [2, 42]: 0 | Plant response rating, Cocklebur [3, 41]: 0 | Plant response rating, Cocklebur [3, 42]: 0 | Plant response rating, Blackgrass [4, 41]: 0 | Plant response rating, Blackgrass [4, 42]: 0 | Plant response rating, Lambsquarters [5, 41]: 0 | Plant response rating, Lambsquarters [5, 42]: 0 | Plant response rating, Barnyardgrass [6, 41]: 0 | Plant response rating, Barnyardgrass [6, 42]: 0 | Plant response rating, Wild Oat [7, 41]: 0 | Plant response rating, Wild Oat [7, 42]: 0 | Plant response rating, Crabgrass [8, 41]: 0 | Plant response rating, Crabgrass [8, 42]: 0 | Plant response rating, Pigweed [9, 41]: 0 | Plant response rating, Pigweed [9, 42]: 0 | Plant response rating, Morningglory [10, 41]: 0 | Plant response rating, Morningglory [10, 42]: 0 | Plant response rating, Corn [11, 41]: 0 | Plant response rating, Corn [11, 42]: 0 | Plant response rating, Wheat [12, 41]: 0 | Plant response rating, Wheat [12, 42]: 0 | Plant response rating, Foxtail, Giant [13, 41]: 0 | Plant response rating, Foxtail, Giant [13, 42]: 0 | Plant response rating, Velvetleaf [18, 39]: 0 | Plant response rating, Velvetleaf [18, 43]: 0 | Plant response rating, Surinam grass [19, 39]: 0 | Plant response rating, Surinam grass [19, 43]: 0 | Plant response rating, Cocklebur [20]: 0 | Plant response rating, Lambsquarters [21, 39]: 100 | Plant response rating, Lambsquarters [21, 43]: 100 | Plant response rating, Barnyardgrass [22, 39]: 0 | Plant response rating, Barnyardgrass [22, 43]: 0 | Plant response rating, Crabgrass [23, 39]: 0 | Plant response rating, Crabgrass [23, 43]: 0 | Plant response rating, Pigweed [24, 39]: 100 | Plant response rating, Pigweed [24, 43]: 0 | Plant response rating, Morningglory [25, 39]: 0 | Plant response rating, Morningglory [25, 43]: 0 | Plant response rating, Corn [26, 39]: 0 | Plant response rating, Corn [26, 43]: 0 | Plant response rating, Foxtail, Giant [27, 39]: 0 | Plant response rating, Foxtail, Giant [27, 43]: 0 | Plant response rating, Rice [28, 39]: 0 | Plant response rating, Rice [28, 43]: 0 | Plant response rating, Barnyardgrass [29]: 20 | Plant response rating, Flatsedge [30]: 70 | Plant response rating, Rice [31]: 0 | Plant response rating, Ducksalad [32]: 0
